Data on 23 molecules can be found in US9169254B2, “Spiroimidazolone derivative” (Chugai Seiyaku Kabushiki Kaisha, priority 2009, dated 2015).

The test deals with T1, human PTH1 receptor (Homo sapiens, UniProt Q03431).
T1 sequence (Q03431 27-593): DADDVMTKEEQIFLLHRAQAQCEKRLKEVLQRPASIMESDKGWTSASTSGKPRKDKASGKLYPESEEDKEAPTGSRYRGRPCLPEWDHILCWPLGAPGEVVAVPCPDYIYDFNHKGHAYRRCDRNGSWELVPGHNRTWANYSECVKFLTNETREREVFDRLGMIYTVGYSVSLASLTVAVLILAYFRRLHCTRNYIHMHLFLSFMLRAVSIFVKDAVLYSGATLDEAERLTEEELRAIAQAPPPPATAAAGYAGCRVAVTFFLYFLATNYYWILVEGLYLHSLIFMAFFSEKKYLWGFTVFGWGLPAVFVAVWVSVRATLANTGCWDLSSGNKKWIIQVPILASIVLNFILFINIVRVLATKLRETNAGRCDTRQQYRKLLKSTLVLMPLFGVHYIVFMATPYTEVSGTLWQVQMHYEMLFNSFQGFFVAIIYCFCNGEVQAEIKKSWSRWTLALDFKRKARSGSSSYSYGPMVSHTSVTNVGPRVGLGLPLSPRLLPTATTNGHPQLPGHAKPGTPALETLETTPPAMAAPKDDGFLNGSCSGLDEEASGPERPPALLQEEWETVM
In words: In vitro cAMP signal activity in HKRK-B7 cells (LLC-PK1 cells overexpressing the human PTH1 receptor). It counts as cell-based. The conditions noted are these: HKRK-B7 cells; compound at 1×10^−3 M; cAMP produced as percentage of that produced by hPTH(1-34) at 100 nM.
For the molecule `O=C1NC(CCCCCCCCC(F)(F)F)=NC12CCN(S(=O)(=O)CCc1cccc3c1ccn3C[C@H](O)CO)CC2` [Compound 789, 8-{2-[1-((S)-2,3-dihydroxy-propyl)-1H-indol-4-yl]-ethanesulfonyl}-2-(9,9,9-trifluoro-nonyl)-1,3,8-triaza-spiro[4.5]dec-1-en-4-one], the “cAMP production activity (%)” value is 157%.
Turning to `CCCCCCCCCC1=NC2(CCN(S(=O)(=O)CCc3ccc(N4C(=O)CNC4=O)cc3C)CC2)C(=O)N1` [Compound 790, 3-{3-methyl-4-[2-(2-nonyl-4-oxo-1,3,8-triaza-spiro[4.5]dec-1-ene-8-sulfonyl)-ethyl]-phenyl}-imidazolidine-2,4-dione], the “cAMP production activity (%)” value turned out to be 88%.
Regarding `Cc1cc2c(ccn2C[C@@H](O)CO)c(C)c1CCS(=O)(=O)N1CCC2(CC1)N=C(C1CCC(CCC(F)(F)F)CC1)NC2=O` (stereo partly drawn) [Compound 791, 8-{2-[1-((R)-2,3-dihydroxy-propyl)-4,6-dimethyl-1H-indol-5-yl]-ethanesulfonyl}-2-[4-(3,3,3-trifluoro-propyl)-cyclohexyl]-1,3,8-triaza-spiro[4.5]dec-1-en-4-one], the “cAMP production activity (%)” value was 6.1%.
On to `Cc1cc(N2C(=O)CNC2=O)ccc1CCS(=O)(=O)N1CCC2(CC1)N=C(c1cccc(OC(F)(F)F)c1)NC2=O` [Compound 792, 3-(3-methyl-4-{2-[4-oxo-2-(3-trifluoromethoxy-phenyl)-1,3,8-triaza-spiro[4.5]dec-1-ene-8-sulfonyl]-ethyl}-phenyl)-imidazolidine-2,4-dione], for which the “cAMP production activity (%)” value came to 110%.
To `Cc1cc(N2CCOCC2=O)ccc1CCS(=O)(=O)N1CCC2(CC1)N=C(c1cccc(OC(F)(F)F)c1)NC2=O` [Compound 793, 8-{2-[2-methyl-4-(3-oxo-morpholin-4-yl)-phenyl]-ethanesulfonyl}-2-(3-trifluoromethoxy-phenyl)-1,3,8-triaza-spiro[4.5]dec-1-en-4-one] belongs 124%.
Turning to `CC(=O)N(CCO)c1cc(C)c(CCS(=O)(=O)N2CCC3(CC2)N=C(c2ccc(F)c(C(F)(F)F)c2)NC3=O)c(C)c1` [Compound 794, N-(4-{2-[2-(4-fluoro-3-trifluoromethyl-phenyl)-4-oxo-1,3,8-triaza-spiro[4.5]dec-1-ene-8-sulfonyl]-ethyl}-3,5-dimethyl-phenyl)-N-(2-hydroxy-ethyl)-acetamide], the “cAMP production activity (%)” value was 76%.
To `CCCCCCCCCC1=NC2(CCN(S(=O)(=O)CCc3ccc(N4C(=O)CNC4=O)cc3C(F)(F)F)CC2)C(=O)N1` [Compound 795, 3-{4-[2-(2-nonyl-4-oxo-1,3,8-triaza-spiro[4.5]dec-1-ene-8-sulfonyl)-ethyl]-3-trifluoromethyl-phenyl}-imidazolidine-2,4-dione] belongs 97%; to `CCCCCCCCCC1=NC2(CCN(S(=O)(=O)CCc3c(C)cc(C(=O)O)cc3C)CC2)C(=O)N1` [Compound 796, 3,5-dimethyl-4-[2-(2-nonyl-4-oxo-1,3,8-triaza-spiro[4.5]dec-1-ene-8-sulfonyl)-ethyl]-benzoic acid], 64%.
As for `Cc1cc(C(=O)N2CCC(O)CC2)cc(C)c1CCS(=O)(=O)N1CCC2(CC1)N=C(c1ccc(F)c(C(F)(F)F)c1)NC2=O` [Compound 797, 2-(4-fluoro-3-trifluoromethyl-phenyl)-8-{2-[4-(4-hydroxy-piperidine-1-carbonyl)-2,6-dimethyl-phenyl]-ethanesulfonyl}-1,3,8-triaza-spiro[4.5]dec-1-en-4-one], the “cAMP production activity (%)” value was 88%.
On to `CCCCCCCCCC1=NC2(CCN(S(=O)(=O)CCc3c(C)cc(OCCC(O)CO)cc3C)CC2)C(=O)N1` (centres unmarked) [Compound 798, 8-{2-[4-(3,4-dihydroxy-butoxy)-2,6-dimethyl-phenyl]-ethanesulfonyl}-2-nonyl-1,3,8-triaza-spiro[4.5]dec-1-en-4-one], for which the “cAMP production activity (%)” value is reported as 101%.
`Cc1cc(N2C(=O)CNC2=O)cc(C)c1CCS(=O)(=O)N1CCC2(CC1)N=C(c1cccc(OC(F)(F)F)c1)NC2=O` [Compound 799, 3-(3,5-dimethyl-4-{2-[4-oxo-2-(3-trifluoromethoxy-phenyl)-1,3,8-triaza-spiro[4.5]dec-1-ene-8-sulfonyl]-ethyl}-phenyl)-imidazolidine-2,4-dione]: the “cAMP production activity (%)” value is reported as 7.1%.
To `Cc1cc(N2C(=O)CNC2=O)cc(C)c1CCS(=O)(=O)N1CCC2(CC1)N=C(c1ccc(F)c(C(F)(F)F)c1)NC2=O` [Compound 800, 3-(4-{2-[2-(4-fluoro-3-trifluoromethyl-phenyl)-4-oxo-1,3,8-triaza-spiro[4.5]dec-1-ene-8-sulfonyl]-ethyl}-3,5-dimethyl-phenyl)-imidazolidine-2,4-dione] belongs 77%.
Consider `Cc1cc(OCCC(O)CO)cc(C)c1CCS(=O)(=O)N1CCC2(CC1)N=C(c1ccc(F)c(C(F)(F)F)c1)NC2=O` (centres unmarked) [Compound 801, 8-{2-[4-(3,4-dihydroxy-butoxy)-2,6-dimethyl-phenyl]-ethanesulfonyl}-2-(4-fluoro-3-trifluoromethyl-phenyl)-1,3,8-triaza-spiro[4.5]dec-1-en-4-one], for which the “cAMP production activity (%)” value was 103%.
To `Cc1cc(C(=O)N2CCC(O)(CF)CC2)cc(C)c1CCS(=O)(=O)N1CCC2(CC1)N=C(c1ccc(F)c(C(F)(F)F)c1)NC2=O` [Compound 802, 8-{2-[4-(4-fluoromethyl-4-hydroxy-piperidine-1-carbonyl)-2,6-dimethyl-phenyl]-ethanesulfonyl}-2-(4-fluoro-3-trifluoromethyl-phenyl)-1,3,8-triaza-spiro[4.5]dec-1-en-4-one] belongs 100%.
Then `Cc1cc(C(=O)N2CCC(C)(O)CC2)cc(C)c1CCS(=O)(=O)N1CCC2(CC1)N=C(c1ccc(F)c(C(F)(F)F)c1)NC2=O` [Compound 803, 2-(4-fluoro-3-trifluoromethyl-phenyl)-8-{2-[4-(4-hydroxy-4-methyl-piperidine-1-carbonyl)-2,6-dimethyl-phenyl]-ethanesulfonyl}-1,3,8-triaza-spiro[4.5]dec-1-en-4-one], with 103%.
Then `Cc1cc(C(=O)N2CCC3(CC2)COC3)cc(C)c1CCS(=O)(=O)N1CCC2(CC1)N=C(c1ccc(F)c(C(F)(F)F)c1)NC2=O` [Compound 804, 8-{2-[2,6-dimethyl-4-(2-oxa-7-aza-spiro[3.5]nonane-7-carbonyl)-phenyl]-ethanesulfonyl}-2-(4-fluoro-3-trifluoromethyl-phenyl)-1,3,8-triaza-spiro[4.5]dec-1-en-4-one], with 78%.
With `CC(=O)Nc1ccc(CCS(=O)(=O)N2CCC3(CC2)N=C(C2CCC(C)CC2)NC3=O)c(OC(C)C)c1` (centres unmarked) [Compound 812, N-(3-isopropoxy-4-{2-[2-(4-methyl-cyclohexyl)-4-oxo-1,3,8-triaza-spiro[4.5]dec-1-ene-8-sulfonyl]-ethyl}-phenyl)-acetamide], the “cAMP production activity (%)” value amounted to 105%.
Regarding `CCCCCCCCCC1=NC2(CCN(S(=O)(=O)CCc3c(C)cc(N(C)C(N)=O)cc3C)CC2)C(=O)N1` [Compound 817, 1-{3,5-dimethyl-4-[2-(2-nonyl-4-oxo-1,3,8-triaza-spiro[4.5]dec-1-ene-8-sulfonyl)-ethyl]-phenyl}-1-methyl-urea], the “cAMP production activity (%)” value is listed as 111%.
As for `Cc1cc(N(CCF)C(N)=O)cc(C)c1CCS(=O)(=O)N1CCC2(CC1)N=C(C1CCC(CCC(F)(F)F)CC1)NC2=O` (centres unmarked) [Compound 818, 1-[3,5-dimethyl-4-(2-{4-oxo-2-[4-(3,3,3-trifluoro-propyl)-cyclohexyl]-1,3,8-triaza-spiro[4.5]dec-1-ene-8-sulfonyl}-ethyl)-phenyl]-1-(2-fluoro-ethyl)-urea], the “cAMP production activity (%)” value is listed as 79%.
To `CC(=O)N(CCOCCO)c1cc(C)c(CCS(=O)(=O)N2CCC3(CC2)N=C(C2CCC(CCC(F)(F)F)CC2)NC3=O)c(C)c1` (centres unmarked) [Compound 820, N-[3,5-dimethyl-4-(2-{4-oxo-2-[4-(3,3,3-trifluoro-propyl)-cyclohexyl]-1,3,8-triaza-spiro[4.5]dec-1-ene-8-sulfonyl}-ethyl)-phenyl]-N-[2-(2-hydroxy-ethoxy)-ethyl]-acetamide] belongs 98%.
Then `Cc1cc(OC[C@H](O)CO)cc(C)c1CCS(=O)(=O)N1CCC2(CC1)N=C(C1CCC(CCC(F)(F)F)CC1)NC2=O` (stereo partly drawn) [Compound 821, 8-{2-[4-((R)-2,3-dihydroxy-propoxy)-2,6-dimethyl-phenyl]-ethanesulfonyl}-2-[4-(3,3,3-trifluoro-propyl)-cyclohexyl]-1,3,8-triaza-spiro[4.5]dec-1-en-4-one], with 82%.
On to `O=C1NC(C2CCC(CCC(F)(F)F)CC2)=NC12CCN(S(=O)(=O)CCc1cccc3c1ccn3CCOC[C@@H](O)CO)CC2` (stereo partly drawn) [Compound 822, 8-(2-{1-[2-((S)-2,3-dihydroxy-propoxy)-ethyl]-1H-indol-4-yl}-ethanesulfonyl)-2-[4-(3,3,3-trifluoro-propyl)-cyclohexyl]-1,3,8-triaza-spiro[4.5]dec-1-en-4-one], for which the “cAMP production activity (%)” value was determined as 99%.
In the case of `O=C1NC(C2CCC(CCC(F)(F)F)CC2)=NC12CCN(S(=O)(=O)CCc1cccc3c1ccn3CCOC[C@H](O)[C@@H](O)CO)CC2` (stereo partly drawn) [Compound 823, 2-[4-(3,3,3-trifluoro-propyl)-cyclohexyl]-8-(2-{1-[2-((2S,3S)-2,3,4-trihydroxy-butoxy)-ethyl]-1H-indol-4-yl}-ethanesulfonyl)-1,3,8-triaza-spiro[4.5]dec-1-en-4-one], the “cAMP production activity (%)” value was found to be 103%.
